Values joined by “and” are separate entries in the source; they are usually repeats but may differ in a detail not shown here. Equal entries are not always repeated. Inconclusive results and toxic doses are left out. Rule as the data show it: active = T/C of 150% or more; inactive = T/C below 125%.
Test system: L1210 leukemia ip in BDF1 mice, survival T/C
Experiment: NCI In Vivo Anticancer Drug Screen. Data for tumor model L1210 Leukemia (intraperitoneal) in B6D2F1 (BDF1) mice
Details: endpoint: mean survival time, higher = longer survival
Method in brief: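 Tumor cells were implanted, animals were treated, and survival was followed. The result divides the treated measurement by the vehicle-control measurement.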

[1] = dose: 100.0 mg/kg/injection, schedule: Q01DX005 (ip), vehicle: saline
[2] = dose: 200.0 mg/kg/injection, schedule: Q01DX005 (ip), vehicle: saline
[3] = dose: 100.0 mg/kg/injection, schedule: Q04DX003 (ip), vehicle: Klucel (hydroxypropylcellulose) (HPC)
[4] = dose: 200.0 mg/kg/injection, schedule: Q04DX003 (ip), vehicle: Klucel (hydroxypropylcellulose) (HPC)
[5] = dose: 100.0 mg/kg/injection, schedule: Q01DX009 (ip), vehicle: saline with Tween-80
[6] = dose: 100.0 mg/kg/injection, schedule: Q04DX003 (ip), vehicle: saline with Tween-80
[7] = dose: 200.0 mg/kg/injection, schedule: Q01DX009 (ip), vehicle: saline with Tween-80
[8] = dose: 200.0 mg/kg/injection, schedule: Q04DX003 (ip), vehicle: saline with Tween-80
[9] = dose: 400.0 mg/kg/injection, schedule: Q01DX009 (ip), vehicle: saline with Tween-80
[10] = dose: 400.0 mg/kg/injection, schedule: Q04DX003 (ip), vehicle: saline with Tween-80
[11] = dose: 400.0 mg/kg/injection, schedule: Q04DX003 (ip), vehicle: Klucel (hydroxypropylcellulose) (HPC)
[12] = dose: 100.0 mg/kg/injection, schedule: Q01DX009 (ip), vehicle: Klucel (hydroxypropylcellulose) (HPC)
[13] = dose: 100.0 mg/kg/injection, schedule: Q01DX001 (ip), vehicle: carboxymethylcellulose (CMC)
[14] = dose: 200.0 mg/kg/injection, schedule: Q01DX001 (ip), vehicle: carboxymethylcellulose (CMC)
[15] = dose: 400.0 mg/kg/injection, schedule: Q01DX001 (ip), vehicle: carboxymethylcellulose (CMC)

Measured: T/C

Nc1nc2c(nc([Se])n2C2OC(CO)C(O)C2O)c(=O)[nH]1 (centres undefined)
inactive: [1] 98 % of control | [2] 98 % of control

Cc1nc(NNCc2ccccc2)n[nH]1
inactive: dose: 37.5 mg/kg/injection, schedule: Q01DX001 (ip), vehicle: Klucel (hydroxypropylcellulose) (HPC) 106 % of control | dose: 75.0 mg/kg/injection, schedule: Q01DX001 (ip), vehicle: Klucel (hydroxypropylcellulose) (HPC) 101 % of control | dose: 150.0 mg/kg/injection, schedule: Q01DX001 (ip), vehicle: Klucel (hydroxypropylcellulose) (HPC) 110 % of control

Nc1ncnc2c1ncn2C1OC(CO)C2OP(=O)(O)OC21 (centres undefined)
inactive: [1] 95 % of control | [2] 118 % of control

COC(c1ccccc1)C(OC)c1ccccc1 (centres undefined)
inactive: dose: 50.0 mg/kg/injection, schedule: Q04DX003 (ip), vehicle: Klucel (hydroxypropylcellulose) (HPC) 96 % of control | dose: 100.0 mg/kg/injection, schedule: Q01DX001 (ip), vehicle: saline 109 % of control | [3] 98 % of control | dose: 200.0 mg/kg/injection, schedule: Q01DX001 (ip), vehicle: saline 94 % of control | [4] 98 % of control | dose: 400.0 mg/kg/injection, schedule: Q01DX001 (ip), vehicle: saline 103 % of control

NC(=O)c1cnc(N)nc1C(N)=O
inactive: [5] 94 % of control | [6] 96 % of control | [7] 100 % of control | [8] 100 % of control | [9] 96 % of control | [10] 94 % of control

Nc1cc2c(cc1N)C(=O)c1ccccc1C2=O
inactive: dose: 100.0 mg/kg/injection, schedule: Q01DX001 (ip), vehicle: acetone 95 % of control | [3] 101 % of control | dose: 200.0 mg/kg/injection, schedule: Q01DX001 (ip), vehicle: acetone 98 % of control | [4] 94 % of control | dose: 400.0 mg/kg/injection, schedule: Q01DX001 (ip), vehicle: acetone 102 % of control | [11] 90 % of control

Cn1c2c(c(=O)n(C)c1=O)C(C(=O)O)CC(=O)N2 (centres undefined)
inactive: [12] 103 % of control | [3] 103 % of control | dose: 200.0 mg/kg/injection, schedule: Q01DX009 (ip), vehicle: Klucel (hydroxypropylcellulose) (HPC) 102 % of control | [4] 102 % of control | dose: 400.0 mg/kg/injection, schedule: Q01DX009 (ip), vehicle: Klucel (hydroxypropylcellulose) (HPC) 100 % of control | [11] 110 % of control

CCC(=O)c1cc([N+](=O)[O-])ccc1NC(C)=O
inactive: [5] 97 % of control | [7] 94 % of control | [9] 94 % of control

O=C(Nc1ccccc1Cl)Nc1ccccc1[N+](=O)[O-]
inactive: dose: 100.0 mg/kg/injection, schedule: Q04DX002 (ip), vehicle: saline + alcohol 111 % of control | dose: 200.0 mg/kg/injection, schedule: Q04DX002 (ip), vehicle: saline + alcohol 100 % of control | dose: 400.0 mg/kg/injection, schedule: Q04DX002 (ip), vehicle: saline + alcohol 96 % of control

c1ccc(/C(N=NC(c2ccccc2)(c2ccccc2)c2ccccc2)=C(/N=NC(c2ccccc2)(c2ccccc2)c2ccccc2)c2ccccc2)cc1
inactive: dose: 100.0 mg/kg/injection, schedule: Q01DX009 (ip), vehicle: saline sonified 94 % of control | dose: 200.0 mg/kg/injection, schedule: Q01DX009 (ip), vehicle: saline sonified 97 % of control | dose: 400.0 mg/kg/injection, schedule: Q01DX009 (ip), vehicle: saline sonified 94 % of control

CC(C)(C)CC(C)(C)NCC(O)COc1ccc(C(C)(C)c2ccc(OCC(O)CNC(C)(C)CC(C)(C)C)cc2)cc1 (centres undefined)
inactive: dose: 3.13 mg/kg/injection, schedule: Q04DX003 (ip), vehicle: other 93 % of control | dose: 6.25 mg/kg/injection, schedule: Q01DX001 (ip), vehicle: saline sonified 97 % of control | dose: 6.25 mg/kg/injection, schedule: Q04DX003 (ip), vehicle: other 97 % of control | dose: 12.5 mg/kg/injection, schedule: Q01DX001 (ip), vehicle: saline sonified 96 % of control | dose: 12.5 mg/kg/injection, schedule: Q04DX003 (ip), vehicle: other 98 % of control | dose: 25.0 mg/kg/injection, schedule: Q04DX003 (ip), vehicle: other 93 % of control

Cc1ccc(CN(C)N=Nc2ccc(C#N)cc2)cc1
inactive: [6] 96 % of control | [8] 87 % of control | [10] 94 % of control

CCOC(=O)c1ccc2c3c([nH]c2c1C)-c1ccccc1CC3
inactive: dose: 50.0 mg/kg/injection, schedule: Q01DX001 (ip), vehicle: carboxymethylcellulose (CMC) 95 % of control | [13] 97 % of control | [14] 106 % of control | [15] 103 % of control

CC1CC(N2CSC(=S)N(C3CC(C)CC(C)(C)C3)C2)CC(C)(C)C1 (centres undefined)
inactive: dose: 25.0 mg/kg/injection, schedule: Q01DX009 (ip), vehicle: Klucel (hydroxypropylcellulose) (HPC) 93 % of control | [12] 86 % of control and 90 % of control | [3] 89 % of control | [4] 94 % of control | [11] 91 % of control

O=C1C=C2CCCC2CC1 (centres undefined)
inactive: dose: 75.0 mg/kg/injection, schedule: Q01DX001 (ip), vehicle: other 97 % of control | dose: 75.0 mg/kg/injection, schedule: Q04DX003 (ip), vehicle: other 93 % of control | dose: 150.0 mg/kg/injection, schedule: Q01DX001 (ip), vehicle: other 92 % of control | dose: 150.0 mg/kg/injection, schedule: Q04DX003 (ip), vehicle: other 98 % of control | dose: 300.0 mg/kg/injection, schedule: Q01DX001 (ip), vehicle: other 94 % of control | dose: 300.0 mg/kg/injection, schedule: Q04DX003 (ip), vehicle: other 92 % of control

COc1ccc(OC)c(NC(=O)c2cccc([N+](=O)[O-])c2)c1
inactive: [13] 94 % of control | [14] 100 % of control | [15] 94 % of control

CC(=O)Nc1ccc(NC(=O)Nc2ccccc2C(F)(F)F)cc1
inactive: [13] 94 % of control and 90 % of control | dose: 100.0 mg/kg/injection, schedule: Q01DX009 (ip), vehicle: carboxymethylcellulose (CMC) 93 % of control and 97 % of control | dose: 100.0 mg/kg/injection, schedule: Q04DX002 (ip), vehicle: carboxymethylcellulose (CMC) 95 % of control and 102 % of control | dose: 100.0 mg/kg/injection, schedule: Q04DX003 (ip), vehicle: carboxymethylcellulose (CMC) 100 % of control and 117 % of control | [14] 94 % of control and 90 % of control | dose: 200.0 mg/kg/injection, schedule: Q01DX009 (ip), vehicle: carboxymethylcellulose (CMC) 94 % of control and 96 % of control | dose: 200.0 mg/kg/injection, schedule: Q04DX002 (ip), vehicle: carboxymethylcellulose (CMC) 96 % of control and 92 % of control | dose: 200.0 mg/kg/injection, schedule: Q04DX003 (ip), vehicle: carboxymethylcellulose (CMC) 95 % of control and 99 % of control | [15] 97 % of control | dose: 400.0 mg/kg/injection, schedule: Q01DX009 (ip), vehicle: carboxymethylcellulose (CMC) 98 % of control and 91 % of control | dose: 400.0 mg/kg/injection, schedule: Q04DX002 (ip), vehicle: carboxymethylcellulose (CMC) 86 % of control | dose: 400.0 mg/kg/injection, schedule: Q04DX003 (ip), vehicle: carboxymethylcellulose (CMC) 91 % of control

Reference: PubChem BioAssay AID248 (DTP/NCI, 2004)
